Results as given in patent publication US20240409557A1, “5,6-FUSED AND 6,6-FUSED BICYCLIC ALCOHOLS AND ETHERS AND COMPOSITIONS FOR USE AS 15-PROSTAGLANDIN DEHYDROGENASE MODULATORS” (AMGEN INC., priority 2023, published 2024).

Key:
[1] = target: T1, human recombinant 15-PGDH (Homo sapiens, UniProt P15428); assay: Recombinant 15-PGDH enzymatic inhibition assay (PGDH-Lumi, NADH signal); assay type: biochemical; details: recombinant 15-PGDH; 15 min pre-incubation, 60 min reaction with PGE2 and NAD+, NADH signal
T1 sequence (P15428 1-266): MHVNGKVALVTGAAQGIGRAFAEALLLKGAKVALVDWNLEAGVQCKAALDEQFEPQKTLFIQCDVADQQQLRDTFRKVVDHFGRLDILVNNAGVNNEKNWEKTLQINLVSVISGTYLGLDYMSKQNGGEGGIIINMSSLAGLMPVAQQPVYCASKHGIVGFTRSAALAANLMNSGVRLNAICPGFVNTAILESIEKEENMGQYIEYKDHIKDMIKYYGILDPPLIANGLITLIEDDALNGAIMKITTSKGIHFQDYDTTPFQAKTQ
Summary of the method: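 Buffer 50 mM Tris pH 7.5 with 0.01% Tween-20 and […]; compound, 22 two-fold dilutions, pre-incubated with enzyme 15 min before substrate.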

15-PGDH in A549 cells = target: T2, 15-PGDH in A549 cells (Homo sapiens, UniProt P15428); assay: A549 cellular 15-PGDH assay (PGE2 accumulation, HTRF); assay type: cell-based; details: interleukin-stimulated, inhibitor 24 hrs, PGE2 by competitive HTRF, read-out: A549 Cell Assay IC50
T2 construct: endogenous in cells; host or cells: A549
T2 sequence (P15428 1-266): T1 sequence (P15428 1-266)
Summary of the method: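 Supernatant PGE2 was quantified by competitive HTRF, in which sample PGE2 blocks FRET between a europium cryptate-labelled antibody and labelled PGE2. It came from A549 epithelial cells induced with IL-13. IC50s were calculated from the inversely proportional signal.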

SMILES | IC50 [1] [nM] | IC50 (15-PGDH in A549 cells) [nM]
Cn1cc2cc(-c3ncc4cc([C@]5(O)C[C@@H](C6CC6)C5)sc4n3)cnc2n1 [Compound C99C, cis-3-cyclopropyl-1-(2-(2-methyl-2H-pyrazolo[3,4-b]pyridin-5-yl)thieno[2,3-d]pyrimidin-6-yl)cyclobutanol] | 0.291 | 0.666
CNc1ncc(-c2ccc3cc(C4(O)CC(F)(F)C4)sc3n2)cn1 [Compound C43, 3,3-difluoro-1-(6-(2-(methylamino)-5-pyrimidinyl)thieno[2,3-b]pyridin-2-yl)cyclobutanol] | 5.3 | 6.34
Cn1cc2cc(-c3ccc4cc(C5(O)CC(F)(F)C5)sc4n3)cnc2n1 [Compound C5, 3,3-difluoro-1-(6-(2-methyl-2H-pyrazolo[3,4-b]pyridin-5-yl)thieno[2,3-b]pyridin-2-yl)cyclobutanol] | 0.371 | 1.69
CO[C@]1(C)C[C@](O)(c2cc3cnc(-c4cnc5c(c4)nnn5C)nc3s2)C1 (single isomer, unassigned) [Compound C121T, trans-3-methoxy-3-methyl-1-(2-(3-methyl-3H-[1,2,3]triazolo[4,5-b]pyridin-6-yl)thieno[2,3-d]pyrimidin-6-yl)cyclobutanol] | 6.52 | 13.4
CO[C@H]1CC[C@@]1(O)c1cc2ccc(-c3cnc4nn(C)cc4c3)nc2s1 (single isomer, unassigned) [Compound C70SS] | 2280 | 316
CCn1cc2cc(-c3ccc4cc(C5(O)CC(F)(F)C5)sc4n3)cnc2n1 [Compound C32, 1-(6-(2-ethyl-2H-pyrazolo[3,4-b]pyridin-5-yl)thieno[2,3-b]pyridin-2-yl)-3,3-difluorocyclobutanol] | 0.369 | 0.255
Cn1cc2cc(-c3ncc4cc([C@]5(O)C[C@]6(CC6(F)F)C5)sc4n3)cnc2n1 (single isomer, unassigned) [Compound C114C, cis-1,1-difluoro-5-(2-(2-methyl-2H-pyrazolo[3,4-b]pyridin-5-yl)thieno[2,3-d]pyrimidin-6-yl)spiro[2.3]hexan-5-ol] | 0.323 | 0.821
Cn1cc2cc(-c3ccc4ccc(C5(O)CC(C)(C)C5)cc4n3)cnc2n1 [Compound D2, 3,3-dimethyl-1-(2-(2-methyl-2H-pyrazolo[3,4-b]pyridin-5-yl)-7-quinolinyl)cyclobutanol] | 537 | 268
Cc1cn2cc(-c3ccc4cc(C5(O)CC(F)(F)C5)sc4n3)cnc2n1 [Compound C45, 3,3-difluoro-1-(6-(2-methylimidazo[1,2-a]pyrimidin-6-yl)thieno[2,3-b]pyridin-2-yl)cyclobutanol] | 1.68 | 1.35
Cn1cc2cc(-c3ccc4cc([C@@H](O)C5(C)CC(F)(F)C5)sc4n3)cnc2n1 (single isomer, unassigned) [Compound B86S] | 286 | 1.61
Cn1ccc2cc(-c3ccc4cc([C@@H](O)C5CC(F)(F)C5)sc4n3)ccc2c1=O (single isomer, unassigned) [Compound B50S] | 1.86 | 7.99
Cc1nc2ccc(-c3ccc4cc([C@H](O)C5CC(F)(F)C5)sc4n3)cc2o1 (single isomer, unassigned) [Compound B51R] | 0.164 | 0.357
Cn1cc2cc(-c3ccc4nc([C@]5(O)C[C@](C)(C#N)C5)sc4n3)cnc2n1 (single isomer, unassigned) [Compound C91T, trans-3-hydroxy-1-methyl-3-(5-(2-methyl-2H-pyrazolo[3,4-b]pyridin-5-yl)[1,3]thiazolo[5,4-b]pyridin-2-yl)cyclobutanecarbonitrile] | 2.14 | 5.85
Cn1cc2cc(-c3ccc4cc([C@H](O)C(F)(F)F)sc4n3)cnc2n1 (single isomer, unassigned) [Compound B23R] | 0.422 | 0.389
O[C@@H](c1cc2ccc(-c3cnc4[nH]ncc4c3)nc2s1)C1CC(F)(F)C1 (single isomer, unassigned) [Compound B47R] | 0.21 | 0.366
Cn1cc2cc(-c3ccc4cc(C5(O)CC6(CCCCC6)C5)sc4n3)cnc2n1 [Compound C52, 2-(6-(2-methyl-2H-pyrazolo[3,4-b]pyridin-5-yl)thieno[2,3-b]pyridin-2-yl)spiro[3.5]nonan-2-ol] | 0.361 | 0.0938
O[C@]1(c2cc3ccc(-c4cnc5[nH]nnc5c4)nc3s2)C[C@H](C(F)F)C1 [Compound C103C, cis-3-(difluoromethyl)-1-(6-(3H-[1,2,3]triazolo[4,5-b]pyridin-6-yl)thieno[2,3-b]pyridin-2-yl)cyclobutanol] | 0.302 | 2.43
Cn1cc2cc(-c3ccc4cc([C@H](O)C5CCCC5)sc4c3)cnc2n1 (single isomer, unassigned) [Compound B58R] | 0.24 | 1.41
Cc1nc2cc(-c3ccc4cc(C5(O)CC(F)(F)C5)sc4n3)cnc2[nH]1 [Compound C35, 3,3-difluoro-1-(6-(2-methyl-3H-imidazo[4,5-b]pyridin-6-yl)thieno[2,3-b]pyridin-2-yl)cyclobutanol] | 0.832 | 1.35
Cn1cc2cc(-c3ccc4nc(C5(O)CC6(CC6)C5)sc4n3)cnc2n1 [Compound C108, 5-(5-(2-methyl-2H-pyrazolo[3,4-b]pyridin-5-yl)[1,3]thiazolo[5,4-b]pyridin-2-yl)spiro [2.3]hexan-5-ol] | 0.671 | 1.25
CO[C@H]1C[C@](O)(c2cc3ccc(-c4cnc5nn(C)cc5c4)nc3s2)C1 [Compound C31C, cis-3-methoxy-1-(6-(2-methyl-2H-pyrazolo[3,4-b]pyridin-5-yl)thieno[2,3-b]pyridin-2-yl)cyclobutanol] | 0.356 | 0.157
CO[C@H]1C[C@H]([C@@H](O)c2cc3ccc(-c4cnc5nn(C)cc5c4)nc3s2)C1 (single isomer, unassigned) [Compound B88RT] | 0.524 | 0.511
Cn1cc2cc(-c3ccc4c(N)c([C@@H](O)C5CC(F)(F)C5)sc4n3)cnc2n1 (single isomer, unassigned) [Compound B95S] | 6.43 | 9.46
Cn1cc2cc(-c3ccc4cc(C(O)C5CCCC5)sc4c3)cnc2n1 (centres unmarked) [Compound B58, cyclopentyl(6-(2-methyl-2H-pyrazolo[3,4-b]pyridin-5-yl)-1-benzothiophen-2-yl)methanol] | 0.488 | 2.5
Cc1c([C@H](CO)C2CC(F)(F)C2)sc2nc(-c3cnc4nn(C)cc4c3)ccc12 (single isomer, unassigned) [Compound B93S] | 2.64 | 14.2
Cn1cc2cc(-c3ccc4cc([C@]5(O)C[C@@H](OC(F)(F)F)C5)sc4n3)cnc2n1 [Compound C67C, cis-1-(6-(2-methyl-2H-pyrazolo[3,4-b]pyridin-5-yl)thieno[2,3-b]pyridin-2-yl)-3-(trifluoromethoxy)cyclobutanol] | 0.534 | 0.0187
Cn1cc2cc(-c3cnc4sc([C@H](O)C5CC(F)(F)C5)cc4c3)cnc2n1 (single isomer, unassigned) [Compound B77R] | 4.93 | 1.29
Cn1cc2cc(-c3ccc4cc([C@@H](O)[C@H]5CCC5(F)F)sc4n3)cnc2n1 (single isomer, unassigned) [Compound B94SR] | 0.64 | 2.64
